Measurements published in paper PMC7725003, “Systematically Studying the Optimal Amino Acid Distribution Patterns of the Amphiphilic Structure by Using the Ultrashort Amphiphiles” (Frontiers in Microbiology, 2020).
Where no end group is shown, it is not given here.

What was measured:
Gram-positive bacteria [1] = conditions: geometric mean of MBCs, 7 Gram-positive strains (Table 2)
S. pullorum 7913 = assay type: cell-based, Salmonella pullorum; conditions: 7913, 24 h
How it was run: (§1)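 Peptides, diluted in 0.2% BSA, were mixed with mid-logarithmic cells in MHB (0.5–1 × 10^6 CFU/mL) and incubated for 24 h at 37 °C. Absorbance at 492 nm defined MIC as 95% growth inhibition; subculture onto agar overnight gave MBC as >99.9% kill.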

E. faecalis 29212 = assay type: cell-based, Enterococcus faecalis; conditions: 29212, 24 h
How it was run: as §1

Gram-negative bacteria [2] = conditions: geometric mean of MBCs, 9 Gram-negative strains (Table 2)
E. coli K99 = conditions: for MIC: MHB, 24 h 37°C, 95% growth inhibition
Method: (§2) The antimicrobial activities of the peptides were measured using a method adapted from the National Committee for Clinical Laboratory Standards (NCCLS) with some modifications ([Chou et al., 2016]). The specific procedure for these assays has been previously described. In brief, the bacterial cells were grown to a mid-logarithmic phase and diluted in MHB to an ultimate concentration of 0.5–1 × 10^6 CFU mL^–1. Subsequently, the peptides were consecutively diluted in a 0.2% BSA solution and then added to a bacterial solution in a 96-well plate at identical volumes. After incubation for 24 h at 37°C, the MICs were determined to be the lowest peptide concentration that inhibited 95% of the bacterial growth by monitoring the absorbance at 492 nm using a microplate reader. Subsequently, 50 μL of each incubation mixture was further transferred to agar plates and incubated overnight. […] Every assay was reproduced more than 3 times.

E. coli K88 = conditions: for MIC: MHB, 24 h 37°C, 95% growth inhibition; for MBC: value in brackets, >99.9% of cells killed
Method: as §2

MRSA 43300 = assay type: cell-based, methicillin-resistant S. aureus; conditions: 43300, 24 h
How it was run: as §1

Gram-positive bacteria [3] = conditions: for GM MIC: geometric mean of MICs, 7 Gram-positive strains (Table 2); for TI, Gram-positive bacteria: therapeutic index TI = MHC/GM MIC
How it was run: (§3)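 Broth microdilution adapted from NCCLS: mid-log bacteria diluted in MHB to 0.5–1 × 10^6 CFU mL^–1, mixed with peptides serially diluted in 0.2% BSA. After 24 h at 37°C, MIC taken as the lowest concentration inhibiting 95% of growth by absorbance at 492 nm. Assays repeated more than 3 times.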

Gram-negative bacteria [4] = conditions: for GM MIC: geometric mean of MICs, 9 Gram-negative strains (Table 2); for TI, Gram-negative bacteria: therapeutic index TI = MHC/GM MIC
How it was run: as §3

[5] = system: Listeria monocytogenes CGMCC 1.1075; assay type: cell-based; conditions: CGMCC 1.1075, 24 h
How it was run: as §1

S. epidermidis 12228 = assay type: cell-based, Staphylococcus epidermidis; conditions: 12228, 24 h
How it was run: as §1

E. coli UB1005 = assay type: cell-based, Escherichia coli; conditions: UB1005, 24 h
How it was run: as §1

E. coli 25922 = assay type: cell-based, Escherichia coli; conditions: 25922, 24 h
How it was run: as §1

E. coli O78 = assay type: cell-based, Escherichia coli; conditions: O78, 24 h
How it was run: as §1

P. aeruginosa 27853 = assay type: cell-based, Pseudomonas aeruginosa; conditions: 27853, 24 h
How it was run: as §1

B. subtilis 63501 = assay type: cell-based, Bacillus subtilis; conditions: 63501, 24 h
How it was run: as §1

[6] = system: all of the tested bacterial strains; assay: Geometric mean of MICs, all tested bacterial strains; assay type: cell-based; conditions: for GM, All: geometric mean of MICs across all tested strains; for TI, All: therapeutic index TI = MHC/GM MIC
How it was run: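 Mid-log bacteria at 0.5–1 × 10^6 CFU mL^–1 in MHB with peptides serially diluted in 0.2% BSA, 24 h at 37°C. MIC is the lowest concentration giving 95% growth inhibition by A492. MBC is the lowest giving >99.9% kill on agar subculture, and the GM is taken over all strains.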

E. coli ATCC 25922 = assay: Salt sensitivity assay (MIC); assay type: cell-based, Escherichia coli; conditions: for MIC, FeCl3: 4 μM FeCl3; for MIC, NH4Cl: 6 μM NH4Cl; for MIC, ZnCl2: 8 μM ZnCl2; for MIC, MgCl2: 1 mM MgCl2; for MIC, CaCl2: 2 mM CaCl2; for MIC, KCl: 4.5 mM KCl; for MIC, NaCl: 150 mM NaCl; for MIC, Control: no added salt, three independent assays
How it was run: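 The salt sensitivity of peptides was tested against E. coli ATCC 25922 using a modified NCCLS broth microdilution MIC method. Mid-log bacteria were diluted in MHB to 0.5–1 × 10^6 CFU mL^–1 and mixed in equal volumes with peptides serially diluted in 0.2% BSA in 96-well plates. Physiological salt was added where specified, and the assay was done three independent times.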

S. aureus 29213 [7] = assay type: cell-based, Staphylococcus aureus; conditions: 29213, 24 h
How it was run: as §1

S. aureus 25923 = assay type: cell-based, Staphylococcus aureus; conditions: 25923, 24 h
How it was run: as §1

S. aureus 29213 [8] = assay: Salt sensitivity assay (MIC); assay type: cell-based, Staphylococcus aureus; conditions: for MIC, FeCl3: 4 μM FeCl3; for MIC, NH4Cl: 6 μM NH4Cl; for MIC, ZnCl2: 8 μM ZnCl2; for MIC, MgCl2: 1 mM MgCl2; for MIC, CaCl2: 2 mM CaCl2; for MIC, KCl: 4.5 mM KCl; for MIC, NaCl: 150 mM NaCl; for MIC, Control: no added salt, three independent assays
How it was run: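 MICs determined by broth microdilution in MHB with 0.5–1 × 10^6 CFU/mL, peptides serially diluted in 0.2% BSA, 24 h at 37°C. Medium supplemented with physiological salts (150 mM NaCl, 4.5 mM KCl, 6 μM NH4Cl, 8 μM ZnCl2, 1 mM MgCl2, 2mM CaCl2, 4 μM FeCl3). MIC = lowest concentration inhibiting 95% growth (A492).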

S. typhimurium 14028 = assay type: cell-based, Salmonella typhimurium; conditions: 14028, 24 h
How it was run: as §1

S. typhimurium 7731 = assay type: cell-based, Salmonella typhimurium; conditions: 7731, 24 h
How it was run: as §1

In the case of LRRRRLLLL-NH2 [L11], the “GM MBC” value (Gram-positive bacteria [1]) is reported as 70.66 µM, the MIC (S. pullorum 7913) is reported as over 64 µM and the MIC (E. faecalis 29212) is reported as over 64 µM. The “GM MBC” value (Gram-negative bacteria [2]) was 118.51 µM, the MIC (E. coli K99) was over 64 µM and the MIC (E. coli K88) was 32 µM. For the same substance, the MBC (E. coli K88) was 64 µM, the MIC (MRSA 43300) was over 64 µM and the “GM MIC” value (Gram-positive bacteria [3]) was 57.97 µM. The “TI, Gram-positive bacteria” value (Gram-positive bacteria [3]) was 4.42, the “GM MIC” value (Gram-negative bacteria [4]) was 101.59 µM and the “TI, Gram-negative bacteria” value (Gram-negative bacteria [4]) was 2.52. The MBC [5] was 16 µM, the MIC [5] was 8 µM and the MIC (S. epidermidis 12228) was over 64 µM. It also gave an MIC (E. coli UB1005) of over 64 µM, an MIC (E. coli 25922) of over 64 µM and an MBC (E. coli O78) of 128 µM. It also gave an MIC (E. coli O78) of 64 µM, an MIC (P. aeruginosa 27853) of over 64 µM and an MBC (B. subtilis 63501) of 16 µM. For the same substance, the MIC (B. subtilis 63501) was 8 µM, the “GM, All” value [6] was 79.48 µM and the “TI, All” value [6] was 3.22. It also gave an MIC, FeCl3 (E. coli ATCC 25922) of over 64 µM, an MIC, NH4Cl (E. coli ATCC 25922) of over 64 µM and an MIC, ZnCl2 (E. coli ATCC 25922) of over 64 µM. It also gave an MIC, MgCl2 (E. coli ATCC 25922) of over 64 µM, an MIC, CaCl2 (E. coli ATCC 25922) of over 64 µM and an MIC, KCl (E. coli ATCC 25922) of over 64 µM. For the same substance, the MIC, NaCl (E. coli ATCC 25922) was over 64 µM, the MIC, Control (E. coli ATCC 25922) was over 64 µM and the MIC (S. aureus 29213 [7]) was over 64 µM. The MIC (S. aureus 25923) was over 64 µM, the MIC, FeCl3 (S. aureus 29213 [8]) was over 64 µM and the MIC, NH4Cl (S. aureus 29213 [8]) was over 64 µM. The MIC, ZnCl2 (S. aureus 29213 [8]) was over 64 µM, the MIC, MgCl2 (S. aureus 29213 [8]) was over 64 µM and the MIC, CaCl2 (S. aureus 29213 [8]) was over 64 µM. For the same substance, the MIC, KCl (S. aureus 29213 [8]) was over 64 µM, the MIC, NaCl (S. aureus 29213 [8]) was over 64 µM and the MIC, Control (S. aureus 29213 [8]) was over 64 µM. It also gave an MIC (S. typhimurium 14028) of over 64 µM and an MIC (S. typhimurium 7731) of over 64 µM.

In the case of RLLLLRRLR-NH2 [L10], the “GM MBC” value (Gram-positive bacteria [1]) is reported as 86.14 µM, the MIC (S. pullorum 7913) is reported as over 64 µM and the MIC (E. faecalis 29212) is reported as over 64 µM. For the same substance, the “GM MBC” value (Gram-negative bacteria [2]) was 64.00 µM, the MIC (E. coli K99) was 4 µM and the MBC (E. coli K99; value in brackets, >99.9% of cells killed) was 8 µM. The MIC (E. coli K88) was 32 µM, the MBC (E. coli K88) was 64 µM and the MIC (MRSA 43300) was over 64 µM. The “GM MIC” value (Gram-positive bacteria [3]) was 70.66 µM, the “TI, Gram-positive bacteria” value (Gram-positive bacteria [3]) was 3.62 and the “GM MIC” value (Gram-negative bacteria [4]) was 40.32 µM. For the same substance, the “TI, Gram-negative bacteria” value (Gram-negative bacteria [4]) was 6.35, the MBC [5] was 32 µM and the MIC [5] was 16 µM. The MIC (S. epidermidis 12228) was over 64 µM, the MIC (E. coli UB1005) was over 64 µM and the MBC (E. coli 25922) was 64 µM. For the same substance, the MIC (E. coli 25922) was 32 µM, the MBC (E. coli O78) was 32 µM and the MIC (E. coli O78) was 16 µM. It also gave an MBC (P. aeruginosa 27853) of 64 µM, an MIC (P. aeruginosa 27853) of 32 µM and an MBC (B. subtilis 63501) of 32 µM. For the same substance, the MIC (B. subtilis 63501) was 16 µM, the “GM, All” value [6] was 51.54 µM and the “TI, All” value [6] was 4.97. For the same substance, the MIC, FeCl3 (E. coli ATCC 25922) was 32 µM, the MIC, NH4Cl (E. coli ATCC 25922) was 32 µM and the MIC, ZnCl2 (E. coli ATCC 25922) was 32 µM. It also gave an MIC, MgCl2 (E. coli ATCC 25922) of 32 µM, an MIC, CaCl2 (E. coli ATCC 25922) of 32 µM and an MIC, KCl (E. coli ATCC 25922) of 32 µM. It also gave an MIC, NaCl (E. coli ATCC 25922) of 32 µM, an MIC, Control (E. coli ATCC 25922) of 32 µM and an MIC (S. aureus 29213 [7]) of over 64 µM. It also gave an MIC (S. aureus 25923) of over 64 µM, an MIC, FeCl3 (S. aureus 29213 [8]) of over 64 µM and an MIC, NH4Cl (S. aureus 29213 [8]) of over 64 µM. For the same substance, the MIC, ZnCl2 (S. aureus 29213 [8]) was over 64 µM, the MIC, MgCl2 (S. aureus 29213 [8]) was over 64 µM and the MIC, CaCl2 (S. aureus 29213 [8]) was over 64 µM. For the same substance, the MIC, KCl (S. aureus 29213 [8]) was over 64 µM, the MIC, NaCl (S. aureus 29213 [8]) was over 64 µM and the MIC, Control (S. aureus 29213 [8]) was over 64 µM. For the same substance, the MIC (S. typhimurium 14028) was over 64 µM, the MBC (S. typhimurium 7731) was 128 µM and the MIC (S. typhimurium 7731) was 64 µM.
